For assay [1], the system named is GFP-RFP-LC3 HeLa cell line. The assay is described as follows: GFP-RFP-LC3 HeLa autophagy reporter cell assay (fluorescence microscopy). The assay is classed as cell-based, human. The settings on record: for number of red foci (autolysosomes): 10.0 μM, 6 hours, compared to negative control (DMSO). The procedure: The GFP-RFP-LC3 HeLa cell line (Settembre et al, Science, 2011) was cultured in DMEM (Dulbecco's Modified Eagle's Medium, Sigma, D7777) containing 4500 mg/l glucose, 10% heat inactivated FCS (Merck), 40 μg/ml gentamycin (Hungaropharma) and 600 μg/ml G418 (Sigma, G8168). Drug candidates […]-0696, […]-7132 and […]-1567 were obtained from the ENAMINE molecule bank. 3×10^4 cells were plated onto 13 mm diameter poly-D-lysine coated coverslips in 24-well plates (Greiner) with 24 hours before the treatment. […] As controls, 0.1 and 1% DMSO, 200 nM rapamycin (autophagy inductor) and 100 nM bafilomycin A1 (an autophagy inhibitor) were used. For fluorescence microscopy, cells were fixed in 4% paraformaldehyde (Taab) and mounted in mowiol 4.88 (Polysciences) supplemented with bis-benzimide (Sigma) for nuclei staining. 5 epifluorescent pictures were taken in each condition by a BX51 microscope (Olympus) fitted with a FluoViewII camera and the AnalysisPro software (Olympus), using a 60×/1.4 oil Plan objective and the appropriate filter sets (DAPI: BP330-385/DM400/BA420; GFP: BP460-500/DM505/BP510-560; RFP: BP480-550/DM570/BA590). […] RFP: red fluorescence protein-autolysosome (mature autophagic compartment) GFP: green fluorescence protein Atg8: Autophagy-related protein 8-the most frequently used marker for autophagy Yellow: RFP and GFP (merged)-autophagosome (the primary autophagic structure)

A further assay has as its system mice (pancreas, liver). The assay is described as follows: Autophagic activity in mouse organs by electron microscopy. The class given is in vivo. The settings on record: 50 uMol intraperitoneal, 2.5 hours. The procedure: 50 uMol of effective molecules were dissolved in 10% DMSO and were administered intraperitoneously. After 2.5 hours the animals were sacrificed and their organs removed. The organs were transferred to tissue cultivating solution.
The organs were prepared for electronmicroscopic studies by standard preparation techniques. The ultrathin slices were prepared using Reichert-Jung Ultracut-E type ultramicrotome. The slides were investigated by JEM Jeol 1011 electron microscope.

Assay [2] deals with Drosophila melanogaster transgenic for an mCherry:Atg8 reporter (fat body). The assay is described as follows: mCherry:Atg8 reporter in fat body of Drosophila L3 larvae. The class given is in vivo. The note with it: L3 larva, 1.0 uM, 2 hours. The procedure:
Flies with the genotype of hsFlp:pAct<CD2<Gal4, UAS-nlsGFP, r4:mCherry:Atg8a were used. Microscopic images were taken from the fat body of wandering larvae at the L3 stage. Note that in well-fed larvae at the same stage, no autophagic activity is visible. 2 hours before the test, 90-94 hours larvae were transferred onto yeast suspension (0.5 g yeast extract 2.5 ml water, homogenization and boiling). […] Larvae were cultured in this medium for 2 hours. Preparation of fat bodies was performed in PBS solution. For covering, 8:2 ratio of glycerine:PBS was used (supplemented with 10 mM Hoechst solution).
Imaging was taken with a Zeiss AxioImager Z1 fluorescence microscope, supplemented with Apotome semiconfocal setup, 400× magnification, the same exposition time.
Examining T544-1567 (inhibitor), hsFlp; pAct<CD2<Gal4, UAS-nlsGFP, r4:mCherry:Atg8a flies were crossed with animals of yw; (EP)EDTP^EY22967 genotype (the autophagy antagonist EDTP/Jumpy is clonally overexpressed in fat body).
Cells with overactivated EDTP/Jumpy are in green due to the presence of the GFP transgene. Blue colour (DAP staining) indicates the nuclei (DNA). Red dots (mCherry:Atg8) indicate autophagy structures (autophagosomes+autolysosomes). […]

This note sets out measurements from US20160346283A1, “Various Compounds as Autophagy Stimulants” (Velgene 3 Limited, priority 2013, published 2016).

In the case of `O=C1C([N-]S(=O)(=O)c2ccc([N+](=O)[O-])cc2)=C([n+]2c[nH]c3ccccc32)C(=O)c2ccccc21` [T0501-7132], the “number of red foci (autolysosomes)” value in assay [1] is “induces the accumulation the autolysosomes”. Besides, the “autophagy activity (autolysosome accumulation)” value in assay [1] (larger dose, 50 uM) was “markedly elevated activity”.
As for `CC(Sc1nc2ccccc2c(=O)n1C1CCCC1)C(=O)N1CCc2ccccc21` (stereo not shown) [T558-0696], in the assay with mice (pancreas, liver), the “autophagic activity (autophagosomes and autolysosomes) in liver” value is recorded as “pronounced autophagic activity”; the “autophagic activity (autophagosomes and autolysosomes) in pancreas” value is on record as “pronounced autophagic activity”. In assay [1], the “number of red foci (autolysosomes)” value is listed as “increases the number of red foci (autolysosomes)”. Further, the “red dots (mCherry:Atg8 autophagy structures) in fat body” value in assay [2] is on record as “increased number of red dots”.
On to `CO/C1=C\C(C)=C\[C@@H](C)[C@@H](O)[C@@H](C)C/C(C)=C/C=C/[C@H](OC)[C@@H]([C@@H](C)[C@@H](O)[C@H](C)[C@@]2(O)C[C@@H](O)[C@H](C)[C@@H](C(C)C)O2)OC1=O` [Bafilomycin A1, reference compound], for which the “accumulation of autophagosomes (yellow foci), fusion with lysosomes blocked” value in assay [1] (100 nM bafilomycin A1, 6 hours) is “yellow foci accumulate in large quantities”.
